Values of other authors, collected in patent US20240105341A1, “SYSTEMS AND METHODS FOR ESTIMATING TUMOR GROWTH” (AMGEN INC., priority 2022, published 2024).
Like-named read-outs stand apart in the source and are kept apart here.

What was measured:
[1] = system: metastatic, castration-resistant prostate cancer (mCRPC); details: PREVAIL 2014, phase 3, chemo-naive
[2] = system: metastatic, castration-resistant prostate cancer (mCRPC); details: FIRSTANA 2017, phase 3, chemo-naive

## CNC(=O)c1ccc(N2C(=S)N(c3ccc(C#N)c(C(F)(F)F)c3)C(=O)C2(C)C)cc1F [Enza]
[1]
  CR (number of complete responders): 78
  PR + CR (number of responders): 233

## CC(=O)O[C@@]12CO[C@@H]1C[C@H](O)[C@@]1(C)C(=O)[C@H](O)C3=C(C)[C@@H](OC(=O)[C@H](O)[C@@H](NC(=O)OC(C)(C)C)c4ccccc4)C[C@@](O)([C@@H](OC(=O)c4ccccc4)[C@H]21)C3(C)C [Doce75]
[2]
  CR (number of complete responders): 1
  Median PFS: 5.3
  PR + CR (number of responders): 54

## CO[C@H]1C(=O)[C@]2(C)[C@@H](OC)C[C@H]3OC[C@@]3(OC(C)=O)[C@H]2[C@H](OC(=O)c2ccccc2)[C@]2(O)C[C@H](OC(=O)[C@H](O)[C@@H](NC(=O)OC(C)(C)C)c3ccccc3)C(C)=C1C2(C)C [Caba20]
[2]
  CR (number of complete responders): 1
  Median PFS: 4.4
  PR + CR (number of responders): 61
